# Laboratory results as given in patent publication US10513511B2, “Aqueous suspension formulation comprising 4-(4-(4-(((3R,5R)-5-((1H-1,2,4-triazol-1-yl)methyl)-5-(2,4-difluoro-phenyl)tetrahydrofuran-3-yl)methoxy)-3-methylphenyl) or a pharmaceutically acceptable salt thereof” (PULMOCIDE LIMITED, priority 2015, dated 2019).
# Where two headings read alike, the source gives them in different places.
# Tests used:
# Type in all cases: cell-based
# [1] = test system: BEAS2B cells; assay: Cell viability: resazurin assay; conditions: for effect on the viability of BEAS2B bronchial epithelial cells: at concentrations indicated in Table 4
# Procedure: (§1) BEAS2B cells were seeded in 384-well plates (100 μL; 3000/well/; BD Falcon, Catalogue No 353962) in RPMI-LHC8 (RPMI-1640 and LHC8 media combined in equal proportions) one day before experimentation. For cell-free control wells, RPMI-LHC8 (100 μL) was added. Test compounds (0.5 μL of a DMSO solution) were added to give a final DMSO concentration of 0.5% using an Integra VIAFLO 96 (Integra, Zizers, Switzerland). BEAS2B cells were incubated with each test compound for 1 day (37° C./5% CO2 in RPMI-LHC8). After addition of resazurin stock solution (5 μL, 0.04%) the plates were incubated for a further 4 hr (37° C./5% CO2). The fluorescence of each well at 545 nm (excitation) and 590 nm (emission) was determined using a multi-scanner (Clariostar: BMG Labtech). The percentage loss of cell viability was calculated for each well relative to vehicle (0.5% DMSO) treatment. Where appropriate, a CC50 value was calculated from the concentration-response curve generated from the concentration-response curve for each test compound.
# [2] = test system: Aspergillus fumigatus NCPF7100; assay: Planktonic fungus growth: broth microdilution assay (NCPF7100); conditions: for MIC: Aspergillus fumigatus, NCPF7100, read-out: MIC75 Values against Aspergillus fumigatus isolate NCPF7100
# [3] = test system: Aspergillus fumigatus TR46 (TR46/Y121F/T289A); assay: Planktonic fungus growth: broth microdilution assay (TR46); conditions: for MIC: Aspergillus fumigatus, read-out: MIC75 Values against Aspergillus fumigatus isolate TR46
# Procedure: (§2) This assay was conducted using a modified method published by EUCAST (Rodriguez-Tudela, et al., 2008). Spores of Aspergillus fumigatus (NCPF2010, NCPF7010 [methionine 220 mutation], NCPF7099 [Glycine G54 mutation]) from Public Health England, Wiltshire; TR34/L98H mutants from St Louis Hospital, Paris, France; TR46/Y121F/T289A mutants from University of Delhi, Delhi, India) were cultured in Sabouraud dextrose agar for 3 days. A stock spore suspension was prepared from a Sabouraud dextrose agar culture by washing with PBS-tween (10 mL; phosphate buffered saline containing 0.05% Tween-20, 100 U/mL penicillin and 100 U/mL streptomycin). The spore count was assessed using a Neubauer haemocytometer and then adjusted to 10^6 spores/mL with PBS. A working suspension of spores (2×10^5 spores/mL) was prepared in filter sterilised, BSA MOPS RPMI-1640 (50 mL; RPMI-1640 containing 2 mM L-glutamine, 0.5% BSA, 2% glucose, 0.165 M MOPS, buffered to pH 7 with NaOH).
# (§3) For the assay, BSA MOPS RPMI-1640 (50 μL/well) was added throughout the 384-well plate (Catalogue number 353962, BD Falcon, Oxford, UK) first. Test compounds (0.5 μL DMSO solution) were then added in quadruplicate using an Integra VIAFLO 96 (Integra, Zizers, Switzerland), and mixed well using a plate mixer. Subsequently 50 μL of the working spore suspension prepared above was added to all wells except non-spore control wells. For non-spore control wells, BSA MOPS-RPMI solution (50 μL/well) was added instead. The plate was covered with a plastic lid, and incubated (35° C. with ambient air) for 48 hr. The OD of each well at 530 nm was determined using a multi-scanner (Clariostar: BMG, Buckinghamshire, UK). The percentage inhibition for each well was calculated and the MIC50, MIC75 and MIC90 values were calculated from the concentration-response curve generated for each test compound.
# [4] = test system: Aspergillus fumigatus L98H (TR34/L98H); assay: Planktonic fungus growth: broth microdilution assay (L98H); conditions: for MIC: Aspergillus fumigatus, read-out: MIC75 Values against Aspergillus fumigatus isolate L98H
# Procedure: as §2, §3
# [5] = test system: Aspergillus fumigatus NCPF2010; assay: Planktonic fungus growth: broth microdilution assay (NCPF2010)
# Procedure: as §2, §3
# [6] = test system: Aspergillus fumigatus NCPF7099; assay: Planktonic fungus growth: broth microdilution assay (NCPF7099)
# Procedure: as §2, §3
# [7] = Cell viability: resazurin assay; conditions: human, BEAS2B cells; 1 day incubation, resazurin; n = 3
# Procedure: as §1
# [8] = test system: Aspergillus fumigatus (azole resistant strain: TR34/L98H); assay: Aspergillus fumigatus infection of human alveoli bilayers (transwells), azole resistant strain; conditions: TR34-L98H, Compound 0.3 μg/mL upper chamber, posaconazole 0.1 μg/mL lower chamber, combination of both
# Procedure: In vitro models of human alveoli, consisting of a bilayer of human alveolar epithelial cells and endothelial cells, were prepared as previously described (Hope et al., 2007). This system allows administration of a test compound to the upper (“air” space) and/or lower (“systemic” space) compartments. This flexibility has been exploited to explore the effects of combination treatment by dosing Compound (I) to the upper chamber and posaconazole or other anti-fungal agents to the lower chamber. Primary human pulmonary artery endothelial cells (HPAEC) were harvested and diluted to 10^6 cells/mL in EGM-2 media (Lonza, Basel, Switzerland). Transwells were inverted and the cell suspension (100 μL/well) applied to the base of each transwell. The inverted transwells were incubated at RT within a flow hood for 2 hr after which they were turned upright. EGM-2 media was added to the lower (700 μL/well) and upper (100 μL/well) compartments and the transwells were incubated for 48 hr (37° C., 5% CO2). The EGM-2 media in the lower compartment was then replaced with fresh EGM-2 media. A549 cells were harvested and diluted to 5×10^5 cells/mL in 10% EBM, then added to the upper compartment (100 μL/well) of all transwells and the plates incubated for 72 hr (37° C., 5% CO2). Conidia of itraconazole sensitive Aspergillus fumigatus s (NCPF2010) and itraconazole resistant (TR34-L98H) strains were cultured separately in Sabouraud dextrose agar for 3 days. A stock conidia suspension of either strain was prepared from a Sabouraud dextrose agar culture by washing with PBS-tween (10 mL; PBS containing 0.05% Tween-20, 100 U/mL Penicillin and 100 U/mL Streptomycin). The conidia count was assessed using a Neubauer haemocytometer and adjusted to 10^6 conidia/mL with PBS. A working stock of conidia was prepared in EBM (10^5 conidia/mL) immediately prior to use.
# Test and reference compounds (or neat DMSO as the vehicle) were added to the appropriate wells of 24-well plates (3 μL/well containing 600 μL of 2% FBS EBM) for lower compartment treatment and to 96-well plates (1 μL/well containing 200 μL of 2% FBS EBM) for the treatment of the upper compartment, to provide a final DMSO concentration of 0.5%. The media in the upper compartment was aspirated and that containing the appropriate test and reference compounds, or vehicle, were added (100 μL/well). Transwells were then transferred into the 24-well plate containing the test and reference compounds or DMSO vehicle. After incubation for 1 hr (35° C., 5% CO2) the conidia suspension (10 μL/well) was added to the upper compartment of each transwell. Plates were then incubated for 24 hr (35° C., 5% CO2). Supernatants from each compartment (5 μL/compartment) were collected and stored (−20° C.). Media was replaced daily after collection of the supernatants and all wells were treated with test and reference compounds or with DMSO, as described above, for 3 days. Samples continued to be collected until fungal growth was visible by eye in all transwells. The levels of GM in the supernatant in lower compartment were then measured by ELISA (BioRad, CA, USA) as an index of Aspergillus fumigatus invasion.
# [9] = test system: Aspergillus fumigatus (NCPF2010); assay: Aspergillus fumigatus infection of BEAS2B bronchial epithelial cells (galactomannan); conditions: NCPF2010, 24 h, read-out: Infection of BEAS2B cells MIC50
# Procedure: BEAS2B cells were seeded in 96-well plates (100 μL; 3×10^4 cells/well; Catalogue No 3596, Sigma Aldrich, Dorset, UK) in 10% FBS RPMI-1640 and were then incubated (37° C., 5% CO2) for one day before experimentation. Test compounds (0.5 μL DMSO solution) or vehicle (DMSO) were added to each well to give a final DMSO concentration of 0.5%. BEAS2B cells were incubated with test compounds for 1 hr (35° C., 5% CO2) before infection with Aspergillus fumigatus (20 uL; Public Health England) conidia suspension (0.5×10^5/mL in 10% FBS RPMI-1640). The plate was incubated for 24 hr (35° C., 5% CO2). Supernatant (50 uL) was collected and transferred to a PCR plate (Catalogue No L1402-9700, Starlab, Milton Keynes, UK), which was frozen (−20° C.) until use. After thawing, supernatant (5 μL) was diluted 1:20 by adding R7-PBS solution (95 μL; 1:4 R7 to PBS; Bio-Rad Laboratories, Redmond, Wash., USA). Galactomannan levels in these samples (50 μL) were measured using Platelia GM-EIA kits (Bio-Rad Laboratories, Redmond, Wash., USA). The percentage inhibition for each well was calculated and the IC50 value was calculated from the concentration-response curve generated for each test compound.
# [10] = broth microdilution assay, n = 2-3
# [11] = Aspergillus fumigatus, NCPF2010, n = 2-3, read-out: MIC75 Values against Aspergillus fumigatus isolate NCPF2010
# [12] = Aspergillus fumigatus, NCPF7099, n = 2-3, read-out: MIC75 Values against Aspergillus fumigatus isolate NCPF7099
Structure (SMILES),effect on the viability of BEAS2B bronchial epithelial cells [1],CC50 at 1 day [7] [µM],MIC [2] [µM],MIC [3] [µM],MIC [4] [µM],"MIC [5, 11] [µM]","MIC [6, 12] [µM]",other results
"C[C@@H]1[C@H](O)[C@@H](C)/C=C/C=C/C=C/C=C/C=C/C=C/C=C/[C@H](O[C@@H]2O[C@H](C)[C@@H](O)[C@H](N)[C@@H]2O)C[C@@H]2O[C@](O)(C[C@@H](O)C[C@@H](O)[C@H](O)CC[C@@H](O)C[C@@H](O)CC(=O)O[C@H]1C)C[C@H](O)[C@H]2C(=O)O [Amphotericin B, reference compound]",–,–,–,–,–,–,–,"CC50 ([1]; 1 day incubation, resazurin, n = 3): 2.34 µM; MIC75 Values against Aspergillus fumigatus isolate NCPF7100 [2, 10]: 0.523 µM; MIC75 Values against Aspergillus fumigatus isolate TR46 [3, 10]: 0.187 µM; MIC75 Values against Aspergillus fumigatus isolate L98H [4, 10]: 0.195 µM; MIC ([5]; n = 2-3, read-out: MIC75 Values against Aspergillus fumigatus isolate NCPF2010): 0.407 µM; MIC ([6]; n = 2-3, read-out: MIC75 Values against Aspergillus fumigatus isolate NCPF7099): 0.248 µM"
"Cc1cc(N2CCN(c3ccc(C(=O)N[C@@H]4CCCC[C@@H]4O)cc3)CC2)ccc1OC[C@@H]1CO[C@@](Cn2cncn2)(c2ccc(F)cc2F)C1 [Compound (Id), 4-(4-(4-(((3R,5R)-5-((1H-1,2,4-triazol-1-yl)methyl)-5-(2,4-difluorophenyl)tetrahydrofuran-3-yl)methoxy)-3-methylphenyl)piperazin-1-yl)-N-((1R,2S)-2-hydroxycyclohexyl)benzamide]",no or little effect,> 14.6,0.0252,0.316,0.07,0.00851,0.0117,–
"Cc1cc(N2CCN(c3ccc(C(=O)N[C@@H]4CCCC[C@H]4O)cc3)CC2)ccc1OC[C@@H]1CO[C@@](Cn2cncn2)(c2ccc(F)cc2F)C1 [Compound (Ib), 4-(4-(4-(((3R,5R)-5-((1H-1,2,4-triazol-1-yl)methyl)-5-(2,4-difluorophenyl)tetrahydrofuran-3-yl)methoxy)-3-methylphenyl)piperazin-1-yl)-N-((1R,2R)-2-hydroxycyclohexyl)benzamide]",no or little effect,> 14.6,0.0873,0.334,0.303,0.00802,0.0862,–
"Cc1cc(N2CCN(c3ccc(C(=O)NC4CCCCC4O)cc3)CC2)ccc1OC[C@@H]1CO[C@@](Cn2cncn2)(c2ccc(F)cc2F)C1 (stereo partly drawn) [Compound (I), 4-(4-(4-(((3R,5R)-5-((1H-1,2,4-triazol-1-yl)methyl)-5-(2,4-difluorophenyl)tetrahydrofuran-3-yl)methoxy)-3-methylphenyl)piperazin-1-yl)-N-(2-hydroxycyclohexyl)benzamide]",–,–,–,–,–,–,–,"GM Levels in the Lower Chamber, OD value ([8]; Day 0): 0 OD; GM Levels in the Lower Chamber, % inhibition vs. vehicle control ([8]; Day 1): 98%; GM Levels in the Lower Chamber, OD value ([8]; Day 1): 0.016 OD; GM Levels in the Lower Chamber, % inhibition vs. vehicle control ([8]; Day 2): 24%; GM Levels in the Lower Chamber, OD value ([8]; Day 2): 0.84 OD; GM Levels in the Lower Chamber, % inhibition vs. vehicle control ([8]; Day 3): 4.6%; GM Levels in the Lower Chamber, OD value ([8]; Day 3): 1.01 OD; DFB50: Days taken to reach a fungal burden of 50% of control [8]: 1.53 days"
"Cc1cc(N2CCN(c3ccc(C(=O)N[C@H]4CCCC[C@H]4O)cc3)CC2)ccc1OC[C@@H]1CO[C@@](Cn2cncn2)(c2ccc(F)cc2F)C1 [Compound (Ic), 4-(4-(4-(((3R,5R)-5-((1H-1,2,4-triazol-1-yl)methyl)-5-(2,4-difluorophenyl)tetrahydrofuran-3-yl)methoxy)-3-methylphenyl)piperazin-1-yl)-N-((1S,2R)-2-hydroxycyclohexyl)benzamide]",no or little effect,> 14.6,0.0109,0.164,0.0549,0.00227,0.0115,MIC50 [9]: 0.00186 µM
